The values that follow come from article PMC5626944 (Frontiers in Pharmacology, 2017).

Counter-ions that a name gives are not always drawn. Like-named read-outs stand apart in the source and are kept apart here.

The subject of data set [1] is α3β4 nAChRs. More on the design: method as in Carroll et al., 2015. The settings on record: ref Carroll et al., 2015; cited from earlier work.
The subject of data set [2] is α7 nAChRs. Further details: method as in Carroll et al., 2015. Particulars: ref Carroll et al., 2015; cited from earlier work.
Data set [3] relates to WT and α6L9′S mice. The data set can be described thus: Locomotor assay in a novel environment. The settings on record: for Ambulatory activity in a novel environment: 0.5 μmol/kg ip (nicotine 0.08 mg/kg, TC299423 0.09 mg/kg). In kind it is in vivo, mouse. Here is the method: Mice were habituated to the experimental room for 2 h prior to the experiment. Horizontal locomotor activity was recorded using an infrared photobeam activity cage system (San Diego Instruments; San Diego, CA, United States). After habituating to the experimental room, mice were placed singly in a novel cage. Ambulations were recorded when two contiguous photobeams were broken in succession, preventing activity from being recorded by most sedentary animals. Ambulation events were measured for 45 min with four 15 s intervals per min. Mice were given a total of two intraperitoneal (ip) injections. First, mice were pre-injected with saline or 1 mg/kg mecamylamine before being placed in the activity cages.

For data set [4], the target named is α6β2* nAChRs (Mus musculus, UniProt Q9ERK7+Q9R0W9). The data set can be described thus: biochemical. The class given is biochemical. The settings on record: 10 μM. Here is the method:
Regions of interest were dissected from fresh mouse brains and homogenized in ice-cold isotonic sucrose (0.32 M), buffered with HEPES (5 mM, pH 7.5). The suspension was centrifuged at 12,000 × g for 20 min. The pellet was re-suspended in the appropriate uptake buffer ([Grady et al., 2001]; [Salminen et al., 2004]; [Marks et al., 2006]) and used immediately.
Superfusion was carried out at 22°C using a buffer containing: NaCl, 128 mM; KCl, 2.4 mM; CaCl2, 3.2 mM; MgSO4, 1.2 mM; KH2PO4, 1.2 mM; HEPES, 25 mM; glucose, 10 mM; ascorbic acid, 1 mM; pargyline, 0.01 mM; 0.1% BSA; nomifensine, 1 μM (to prevent the re-uptake of dopamine); atropine, 1 μM (to prevent muscarinic receptor activation); pH 7.5. Superfusion proceeded at 0.7 mL/min for 10 min before stimulation with agonist for 20 s. Selected aliquots were perfused with α-CtxMII (50 nM) for 3 min immediately before stimulation. This concentration of α-CtxMII was sufficient to inhibit α6β2^∗-nAChRs in the mouse striatum ([Salminen et al., 2004], [2007]). Fractions (∼0.1 mL) were collected into 96-well plates at 10 s intervals for 4 min (starting ∼1 min before stimulation). After adding 0.15 mL of Optiphase SuperMix scintillation cocktail, radioactivity was measured using a 1450 MicroBeta TriLux counter (Perkin Elmer Life Sciences).

In data set [5] the test system is WT mice. The data set can be described thus: Marble burying assay. Particulars: 0.3 mg/kg ip. In kind it is in vivo, mouse.
Data set [6] addresses α4β2* nAChRs (Mus musculus, UniProt O70174+Q9ERK7). The data set can be described thus: biochemical. The settings on record: 10 μM. In kind it is biochemical. As for the experimental part: Regions of interest were dissected from fresh mouse brains and homogenized in ice-cold isotonic sucrose (0.32 M), buffered with HEPES (5 mM, pH 7.5). The suspension was centrifuged at 12,000 × g for 20 min.
Superfusion proceeded at 0.7 mL/min for 10 min before stimulation with agonist for 20 s. Selected aliquots were perfused with α-CtxMII (50 nM) for 3 min immediately before stimulation. […] Fractions (∼0.1 mL) were collected into 96-well plates at 10 s intervals for 4 min (starting ∼1 min before stimulation).

In data set [7] the test system is WT mice. In words: Hot plate assay. The class given is in vivo, mouse. The settings on record: 0.3 mg/kg ip each, 55°C hot plate, p < 0.05. Here is the method: Mice were again habituated to the experimental room for ≥2 h prior to testing. […] This apparatus is a heated metal plate, maintained at 55°C, enclosed by a clear acrylic plastic cylinder (∼10 cm in diameter), within which the mouse is free to move. […] If the mouse urinates during the assay, it is immediately removed from the hot plate. The time that the mouse remains on the hot plate prior to showing signs of discomfort is recorded. Doses were administered using a Latin-square crossover design. A day without testing occurred between each test.
On the technique in general: Hot-plate and tail-flick tests time the reaction to a heat stimulus.

Data set [8] in a line: In vitro metabolism in microsomes. Particulars: rat microsomes. In kind it is in vitro ADME.
Data set [9] relates to CYP2D6. In words: Turnover by recombinantly expressed human cytochrome P450 isoforms. In kind it is in vitro ADME. Particulars: 100 pmol/mL enzyme, 37 °C. As for the experimental part:
(§1) S2 Table. In vitro metabolism of TC299423, compared w ith varenicline.
(§2) Human Rat microsomes Turnover by human cytochrome P450 isoforms […]
(§3) The assay mixtures (final incubation volume of 125 μL) in 0.255 M phosphate buffer with 0.575% (w/v) KCl (pH 7.4) contained PiB (1.0 μM), […] a recombinantly expressed cytochrome P450 enzyme preparation (1A2, 2C9, 2C19, 2D6, 3A4, and FMO3) at 100 pmol/mL. After a 10 min preincubation at 37 °C, the reaction was initiated by addition of 2.0 mM NADPH and incubated for 60 min. The reactions were terminated by the addition of two volumes of DMSO. Samples were subsequently centrifuged at 4,000 rpm for 10 min. From the resulting supernatant, 10 μ L was analyzed by liquid chromatography/tandem mass spectrometry (LC-MS/MS). Control experiments were performed by substituting the active enzyme preparation by cell preparations containing no recombinant human CYP. a, Data for clearance are given as μL /min/mg protein. […]
(§4) c, Data for cytochrome P450 turnover and for human flavin- containing monooxygenase 3 (FMO3) are given as percent decline over 60 min.

Data set [10] concerns CYP3A4. The description is as above. In kind it is in vitro ADME. The settings on record: 100 pmol/mL enzyme, 37 °C. As for the experimental part: as §1, §2, §3, §4
The subject of data set [11] is CYP2C9. The description is as above. Particulars: 100 pmol/mL enzyme, 37 °C. The class given is in vitro ADME. As for the experimental part:
as §1, §2, §3, §4

Data set [12] deals with CYP1A2. The data set is described as above. The class given is in vitro ADME. Particulars: 100 pmol/mL enzyme, 37 °C. As for the experimental part: as §1, §2, §3, §4
Data set [13] deals with CYP2C19. The data set is described as above. The class given is in vitro ADME. The settings on record: 100 pmol/mL enzyme, 37 °C. As for the experimental part:
as §1, §2, §3, §4

Data set [14] can be described thus: In vitro metabolism in microsomes. In kind it is in vitro ADME. The settings on record: human microsomes.

Sequence of α6β2* nAChRs (Q9R0W9 31-494): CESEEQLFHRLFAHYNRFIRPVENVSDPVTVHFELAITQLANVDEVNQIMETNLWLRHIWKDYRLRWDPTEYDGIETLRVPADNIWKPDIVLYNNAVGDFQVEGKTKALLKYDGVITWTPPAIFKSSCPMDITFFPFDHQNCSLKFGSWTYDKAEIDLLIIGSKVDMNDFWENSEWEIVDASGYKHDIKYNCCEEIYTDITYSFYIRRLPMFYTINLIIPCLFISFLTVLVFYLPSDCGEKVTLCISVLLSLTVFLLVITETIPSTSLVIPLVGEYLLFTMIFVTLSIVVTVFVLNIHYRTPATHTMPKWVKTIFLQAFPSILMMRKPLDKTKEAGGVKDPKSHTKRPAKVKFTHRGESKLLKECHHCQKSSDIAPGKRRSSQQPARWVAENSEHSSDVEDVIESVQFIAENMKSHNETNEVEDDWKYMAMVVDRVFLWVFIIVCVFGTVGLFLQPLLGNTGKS
Sequence of α6β2* nAChRs (Q9ERK7 26-501): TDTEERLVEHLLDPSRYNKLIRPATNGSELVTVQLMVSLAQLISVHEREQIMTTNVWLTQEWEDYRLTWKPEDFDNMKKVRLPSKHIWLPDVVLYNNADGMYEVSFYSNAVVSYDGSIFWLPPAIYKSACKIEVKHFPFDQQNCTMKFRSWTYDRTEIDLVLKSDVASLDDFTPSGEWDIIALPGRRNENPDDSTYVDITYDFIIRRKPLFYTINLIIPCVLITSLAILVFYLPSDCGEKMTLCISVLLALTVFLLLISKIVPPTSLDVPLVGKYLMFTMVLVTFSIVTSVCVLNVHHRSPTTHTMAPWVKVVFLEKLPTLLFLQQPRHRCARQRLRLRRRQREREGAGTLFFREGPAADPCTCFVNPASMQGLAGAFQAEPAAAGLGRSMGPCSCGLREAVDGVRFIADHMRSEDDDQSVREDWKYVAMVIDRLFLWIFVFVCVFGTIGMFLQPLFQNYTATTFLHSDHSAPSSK
Sequence of α6β2* nAChRs (Q8BMN3 31-464 partner): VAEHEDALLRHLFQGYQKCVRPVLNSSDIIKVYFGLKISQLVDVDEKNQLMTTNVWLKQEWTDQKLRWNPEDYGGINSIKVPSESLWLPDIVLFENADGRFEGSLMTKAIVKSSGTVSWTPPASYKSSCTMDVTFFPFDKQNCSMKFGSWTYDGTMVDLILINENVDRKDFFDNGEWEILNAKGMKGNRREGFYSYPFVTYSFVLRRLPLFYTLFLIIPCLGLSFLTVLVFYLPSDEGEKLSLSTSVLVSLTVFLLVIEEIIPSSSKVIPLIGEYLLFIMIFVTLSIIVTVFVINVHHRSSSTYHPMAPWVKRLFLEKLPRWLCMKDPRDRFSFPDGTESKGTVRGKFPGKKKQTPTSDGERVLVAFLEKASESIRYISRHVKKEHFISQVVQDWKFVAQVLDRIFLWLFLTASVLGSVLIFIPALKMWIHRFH
Sequence of α4β2* nAChRs (O70174 31-629): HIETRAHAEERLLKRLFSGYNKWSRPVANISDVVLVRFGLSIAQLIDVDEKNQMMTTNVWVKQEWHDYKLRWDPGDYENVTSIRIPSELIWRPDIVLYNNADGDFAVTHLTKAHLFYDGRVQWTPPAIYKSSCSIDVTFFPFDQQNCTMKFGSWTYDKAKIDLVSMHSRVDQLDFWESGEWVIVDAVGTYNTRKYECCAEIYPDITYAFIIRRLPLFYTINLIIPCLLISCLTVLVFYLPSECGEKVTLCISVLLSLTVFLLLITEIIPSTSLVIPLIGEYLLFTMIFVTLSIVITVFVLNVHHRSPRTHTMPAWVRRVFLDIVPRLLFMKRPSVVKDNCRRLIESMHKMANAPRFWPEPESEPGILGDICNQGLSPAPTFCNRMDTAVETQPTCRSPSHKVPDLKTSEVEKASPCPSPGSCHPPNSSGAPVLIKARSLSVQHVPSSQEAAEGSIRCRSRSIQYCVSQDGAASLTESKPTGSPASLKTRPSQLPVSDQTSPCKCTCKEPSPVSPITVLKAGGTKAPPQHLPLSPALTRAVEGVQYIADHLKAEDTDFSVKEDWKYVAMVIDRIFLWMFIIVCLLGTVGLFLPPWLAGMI
Sequence of α4β2* nAChRs (Q9ERK7 26-501): as the sequence (Q9ERK7 26-501) above

Turning to `c1cc2c(cn1)[C@@H]1CC[C@H](CCC2)N1` [PHT, (+)-pyrido[3,4]homotropane], the EC50 (commonly the concentration at which the effect is half-maximal) was 430 nM in data set [1] and 660 nM in [2].
In the case of `CNC1(C)C2CCC(C2)C1(C)C` (centres unmarked) [mecamylamine], the “Effect of pre-injection on nicotine- and TC299423-induced increases in ambulation” value in [3] (α6L9′S mice, 1 mg/kg ip pre-injection) was “blocked”.
Consider `CN1CCC[C@H]1c1cccnc1` [nicotine, (L)-nicotine hydrogen tartrate], for which, in [4], the “α-CtxMII-sensitive [3H]-dopamine release elicited” value was determined as 3.63 ± 0.81 units. In [5], the “Marbles buried compared with saline” value is given as “significantly fewer marbles”. The “Marbles buried compared with varenicline” value in data set [5] (p < 0.001) is listed as “fewer marbles”. In addition, the entries for the “Ambulatory activity in a novel environment” value in data set [3] (WT mice) and in data set [3] (α6L9′S mice) were “Neither TC299423 nor nicotine affected WT ambulation” and “dramatically increased the ambulatory activity”, respectively. The “α-CtxMII-resistant [3H]-dopamine release elicited” value in [6] stood at 7.78 ± 0.83 units. Further, the “Antinociceptive effect compared with varenicline” value in [7] is “significantly greater than that of varenicline”.
As to `c1cnc2cc3c(cc2n1)[C@@H]1CNC[C@H]3C1` [varenicline, Varenicline tartrate, reference compound], in data set [5], the “Marbles buried compared with saline” value is “significantly fewer marbles”. Besides, the half-life (commonly how long it takes for the measured level to halve) in data set [8] was 10 min; in [14] it was 43 min. Moreover, the microsomal CLint in data set [8] (read-out: Clearance) amounted to 233 µL/min/mg; in data set [14] (read-out: Clearance), 39 µL/min/mg. The “Turnover by CYP2D6” value in data set [9] is recorded as 39 percent decline over 60 min. In addition, the “Turnover by CYP3A4” value in [10] is recorded as 50 percent decline over 60 min. The “Turnover by CYP2C9” value in data set [11] was 0 percent decline over 60 min. Moreover, in data set [12], the “Turnover by CYP1A2” value was 7 percent decline over 60 min. Also, in [13], the “Turnover by CYP2C19” value is listed as 0 percent decline over 60 min.
